Reference: US20050085547A1, “Molecules for inducing differentiation of dendritic cells” (Council of Scientific & Industrial Research, priority 2003, published 2005)
Read-outs that look alike come from different tables or passages of the source.

Key:
osteoclast precursors = test: In vitro osteoclastogenesis assay (M-CSF + RANKL, TRAP staining); type: cell-based, Balb/c mice; conditions: for % inhibition of osteoclast formation / Number of TRAP-positive multinuclear cells/well of 96 well plate (Mean ± SEM): 6 days; for Effect on RANKL-induced osteoclast differentiation / formation (in words): M-CSF and RANKL, TRAP-positive osteoclasts
Description: For in vitro osteoclastogenesis bone marrow cells were isolated from 5- to 8-wk-old Balb/c mice. Mice were sacrificed by cervical dislocation and femora and tibiae were aseptically removed and dissected free of adherent soft tissues. The bone ends were cut, and the marrow cavity was flushed out with medium MEM from one end of the bone using a sterile 21-gauge needle. The bone marrow suspension was carefully agitated with a plastic Pasteur pipette to obtain a single-cell suspension. The cells were washed twice and resuspended (10^6 cells/ml) in αMEM containing 10% FBS. […] After 24 h, nonadherent cells were harvested and layered on a Ficoll-Hypaque gradient. Cells at the gradient interface were collected, washed and resuspended (5×10^5/ml) in αMEM containing 10% FBS. In this study, we called these stromal cell-free, M-CSF-dependent, nonadherent cells as osteoclast precursors. These osteoclast precursors were added to 96-well plates (100 μl/well) containing plastic coverslips. Each well received further 100 μl of medium containing M-CSF (30 ng/ml), RANKL (30 ng/ml) without or with various concentrations of purified compound. Cultures were fed every 2-3 days and after incubation for 6 days osteoclast formation was evaluated by tartrate-resistant acid phosphatase (TRAP) staining. The number of TRAP-positive multinucleated cells (MNCs) containing 3 or more nuclei was scored.
TRAP is preferentially expressed at high levels in osteoclast and is considered, especially in the mouse, to be an osteoclast marker. Cytochemical staining for TRAP is widely used for identifying the osteoclasts in vivo and in vitro. It is claimed to be specific for osteoclasts in bone. After incubation, cells on cover slips were washed in PBS, fixed in 10% formalin for 10 min and stained for acid phosphatase in the presence of 0.05 M sodium tartrate. The substrate used was napthol AS-BI phosphate. Only those cells that were strongly TRAP-positive (dark red) counted by light microscopy.

[1] = system: mouse bone marrow leukocyte precursors; test: Viability of the stimulated BM precursor cultures; type: cell-based, BALB/c mice; parameters: Viability, % of Viable cells: reference not given here
Procedure: (§1) The fine suspension obtained above was transferred into a 50 ml sterile centrifuge tube and centrifuged for 10 minutes at 1200 rpm. […] The pellets were washed using HBSS wash buffer and then centrifuged again for 10 minutes at 1200 rpm. This process was repeated for one more time. […] This suspension was then finally passed through a MACS (Magnetic Activated Cell Sorting) column to get essentially and predominately leukocyte precursors.

[2] = system: mouse bone marrow leukocyte precursors; test: Differentiation of dendritic cells from bone marrow leukocyte precursors, flow cytometry of cell surface markers; type: cell-based, BALB/c mice
Procedure: as §1
In order to evaluate the upregulation of various cell surface markers associated with Dendritic cells, flow cytometry on the cells stimulated with GM-CSF or the compound was carried out using fluorescent labeled antibodies to various molecules (CD11c, I-A^d, CD80, CD86, H2-D^d, CD54, CD40).
The hind limbs of the mouse were removed carefully and placed in a Petri dish with HBSS (Hanks Balanced Saline Solution) wash buffer. The tibias and femurs were cleared of all surrounding and attached tissues. This was followed by chipping the ends of bones. The bone marrow was flushed out by injecting HBSS solution into the bone with the help of a hypodermal syringe (No. 26 gauge). The bone marrow was finally made into a fine suspension by syringing in and out of the fluid several times using an 18 gauge syringe needle.

[3] = M-CSF + RANKL + compound 0.5 μg/ml
[4] = M-CSF + RANKL + compound 1.5 μg/ml
[5] = M-CSF + RANKL + compound 3.0 μg/ml
[6] = M-CSF + RANKL + compound 5.0 μg/ml
[7] = Table A, 15 ng/ml of GM-CSF or 50 micro gram per ml of the synthetic compound, 48 h
[8] = Table B (Examples 6-8), concentration not given

O=C([O-])CCC[C@H](NS(=O)(=O)[O-])C(=O)[O-].O=C([O-])CCC[C@H](NS(=O)(=O)[O-])C(=O)[O-].[Ca+2].[Ca+2].[Ca+2] [L-homoglutamic acid, N-sulphonic acid, calcium salt]
% inhibition of osteoclast formation (osteoclast precursors; [3]): 5.55%
Number of TRAP-positive multinuclear cells/well of 96 well plate (Mean ± SEM) (osteoclast precursors; [3]): 138.57 ± 7.95 cells/well
% inhibition of osteoclast formation (osteoclast precursors; [4]): 27.60%
Number of TRAP-positive multinuclear cells/well of 96 well plate (Mean ± SEM) (osteoclast precursors; [4]): 106.23 ± 10.47 cells/well
% inhibition of osteoclast formation (osteoclast precursors; [5]): 46.40%
Number of TRAP-positive multinuclear cells/well of 96 well plate (Mean ± SEM) (osteoclast precursors; [5]): 78.57 ± 13.57 cells/well
% inhibition of osteoclast formation (osteoclast precursors; [6]): 68.50%
Number of TRAP-positive multinuclear cells/well of 96 well plate (Mean ± SEM) (osteoclast precursors; [6]): 46.22 ± 10.00 cells/well

O=C([O-])CC[C@H](NS(=O)(=O)[O-])C(=O)[O-].O=C([O-])CC[C@H](NS(=O)(=O)[O-])C(=O)[O-].[Ca+2].[Ca+2].[Ca+2] [compound 1, L-glutamyl-N-sulphonic acid, Ca salt]
Viability of the cultures at the end of the incubation period ([1]; 200 mM of the synthetic compound, 48 h (embodiment text)): more than 99%
Viability of the cultures at the end of the incubation period ([1]; 50 micro gram per ml of the synthetic compound, 48 h): > 99%
Viability, % of Viable cells [1, 7]: 150%
Induction of differentiation of dendritic cells from BM precursors (in words) [2]: Induces Differentiation of Dendritic Cells
Concentration of maximum up regulation of cell surface densities of CD11c, CD80, CD54 ([2]; incubation of BM leukocyte precursors with different concentrations): 200 mM
Induction of differentiation of dendritic cells from BM precursors (in words) ([2]; listed as the compound): induces the differentiation of DCs from BM precursors
Effect on RANKL-induced osteoclast differentiation / formation (in words) (osteoclast precursors): dose dependent inhibition in the number of osteoclast cells generated

O=C(O)C[C@H](NS(=O)(=O)O)C(=O)O [example 3, L-aspartyl, N-sulfonic acid]
Effect on RANKL-induced osteoclast differentiation / formation (in words) (osteoclast precursors): significantly inhibited osteoclast formation

GM-CSF: Granulocyte Macrophage-Colony Stimulating Factor, growth factor conventionally used to generate DCs in vitro; comparison
Viability, % of Viable cells [1, 7]: 180%
Viability, % of Viable cells [1, 8]: 180%
Fold increase in Relative MFI over unstimulated control, surface marker CD11c [2, 7]: 5.0 fold
Fold increase in Relative MFI over unstimulated control, surface marker CD54 [2, 7]: 4.0 fold
Fold increase in Relative MFI over unstimulated control, surface marker CD80 [2, 7]: 3.3 fold
Fold increase in Relative MFI over unstimulated control, surface marker H-2D^d [2, 7]: 2.0 fold
Fold increase in Relative MFI over unstimulated control, surface marker CD11c [2, 8]: 5.0 fold
Fold increase in Relative MFI over unstimulated control, surface marker CD54 [2, 8]: 4.0 fold
Fold increase in Relative MFI over unstimulated control, surface marker CD80 [2, 8]: 3.3 fold
Fold increase in Relative MFI over unstimulated control, surface marker H-2D^d [2, 8]: 2.0 fold
